Counter-ions that a name gives are not always drawn. Like-named read-outs stand apart in the source and are kept apart here. Blank lines part the entries; values can stand above or below the compound they belong to.
How the values were obtained:
coronary artery diameter = experiment: Coronary Artery Diameter Increasing Action in anesthetized dogs; assay type: in vivo, adult mongrel dogs; details: for Coronary artery diameter (relative to nitroglycerin): maximal change as ratio to 10 μg/kg nitroglycerin
Method: (§1) Adult mongrel dogs were thoracotomized under anesthesia with α-chloralose and the circumflex branch of the left coronary artery was […]; a pair of ultrasonic crystals were attached to the tunica extima for measuring the diameter of the coronary artery whereas an electromagnetic flow probe was attached to the peripheral side to measure the coronary blood flow. Nitroglycerin, dipyridamole and each test compound were administered intravenously for comparison. Each test compound was dissolved in dimethylformamide and diluted sequentially with polyethylene glycol 200 and water to give respective proportions of 20, 50 and 30% (v/v). The results are shown in Table 3, in which the maximal changes in the diameter of the coronary artery and the coronary blood flow are expressed in terms of the ratio to the respective changes caused by 10 μg/kg of nitroglycerin.

coronary blood flow = experiment: Coronary blood flow in anesthetized dogs; assay type: in vivo, adult mongrel dogs; details: maximal change as ratio to 10 μg/kg nitroglycerin
Method: as §1

PDE type V = molecular target: T1, PDE type V (Canis lupus familiaris, UniProt O77746); experiment: PDE Inhibiting Activity, type V (cGMP-PDE); assay type: biochemical, dog (canine aorta); details: PDE type V from canine aorta, 1 μM substrate, pH 7.5; read-out: Inhibition Activity IC50, Type V
T1 construct: PDE was purified from the aorta in a dog; from tissue; host or cells: dog aorta
Method: (§2) On the basis of the method of Lugnier et al. (Biochem. Pharmacol., 35, 1743-1751, 1986), PDE was purified from the aorta in a dog. The canine aorta was minced and homogenized with a Waring Blender and a glass homogenizer in six volumes of a Tris-HCl buffer solution (pH 7.5, 20 mM) containing 2 mM magnesium acetate, 5 mM ethylenediaminetetraacetic acid (EDTA), 100 μg/mL of phenylmethylsulforyl fluoride and 15 mM 2-mercaptoethanol (2-ME), and centrifuged at 1200 xg for 30 min. The supernatant was separated and salted out with ammonium sulfate which was added to 45% saturation. The resulting precipitated fraction was resuspended in a Tris-HCl buffer solution (pH 7.5, 20 mM) containing 2 mM magnesium acetate and 1 mM 2-ME, dialyzed overnight and applied to a DEAE-trisacryl column (DEAE […] M:IBF). By elution with a sodium chloride gradient (0-0.4 M), PDE types V and III were separated from the other isozymes. The supernatant fraction of 45% saturated ammonium sulfate was further mixed with ammonium sulfate to 65% saturation and salted out. The resulting precipitated fraction was similarly applied to the DEAE-trisacryl column and eluted by a sodium chloride gradient (0-0.4 M) so as to separate PDE type I.
The thus obtained PDE types V, III and I were measured for their activity in accordance with the method of Thompson et al. (Adv. Cyclic Nucleotide Res., 10, 69-72, 1979) and the method of Wells et al. (Biochim. Biophys. Acta, 384, 430-443, 1975). Specifically, a purified PDE sample was added to 50 mM Tris-HCl buffer solution (pH 7.5) containing 1 μM of substrate cGMP or cAMP (containing tritium-labelled cGMP or cAMP), 1 mM EGTA and 2 mM magnesium acetate. […] The activity of each test compound was determined as a percentage of the DPE activity measured when it was added as a dimethyl sulfoxide solution (DMSO) and its IC50 (50% inhibition concentration) was calculated by the probit method. […]

PDE type III = molecular target: T2, PDE type III (Canis lupus familiaris, UniProt A0A8I3NYE0); experiment: PDE Inhibiting Activity, type III; assay type: biochemical, dog (canine aorta)
T2 construct: PDE was purified from the aorta in a dog; from tissue; host or cells: dog aorta
T2 sequence (A0A8I3NYE0 1-1135): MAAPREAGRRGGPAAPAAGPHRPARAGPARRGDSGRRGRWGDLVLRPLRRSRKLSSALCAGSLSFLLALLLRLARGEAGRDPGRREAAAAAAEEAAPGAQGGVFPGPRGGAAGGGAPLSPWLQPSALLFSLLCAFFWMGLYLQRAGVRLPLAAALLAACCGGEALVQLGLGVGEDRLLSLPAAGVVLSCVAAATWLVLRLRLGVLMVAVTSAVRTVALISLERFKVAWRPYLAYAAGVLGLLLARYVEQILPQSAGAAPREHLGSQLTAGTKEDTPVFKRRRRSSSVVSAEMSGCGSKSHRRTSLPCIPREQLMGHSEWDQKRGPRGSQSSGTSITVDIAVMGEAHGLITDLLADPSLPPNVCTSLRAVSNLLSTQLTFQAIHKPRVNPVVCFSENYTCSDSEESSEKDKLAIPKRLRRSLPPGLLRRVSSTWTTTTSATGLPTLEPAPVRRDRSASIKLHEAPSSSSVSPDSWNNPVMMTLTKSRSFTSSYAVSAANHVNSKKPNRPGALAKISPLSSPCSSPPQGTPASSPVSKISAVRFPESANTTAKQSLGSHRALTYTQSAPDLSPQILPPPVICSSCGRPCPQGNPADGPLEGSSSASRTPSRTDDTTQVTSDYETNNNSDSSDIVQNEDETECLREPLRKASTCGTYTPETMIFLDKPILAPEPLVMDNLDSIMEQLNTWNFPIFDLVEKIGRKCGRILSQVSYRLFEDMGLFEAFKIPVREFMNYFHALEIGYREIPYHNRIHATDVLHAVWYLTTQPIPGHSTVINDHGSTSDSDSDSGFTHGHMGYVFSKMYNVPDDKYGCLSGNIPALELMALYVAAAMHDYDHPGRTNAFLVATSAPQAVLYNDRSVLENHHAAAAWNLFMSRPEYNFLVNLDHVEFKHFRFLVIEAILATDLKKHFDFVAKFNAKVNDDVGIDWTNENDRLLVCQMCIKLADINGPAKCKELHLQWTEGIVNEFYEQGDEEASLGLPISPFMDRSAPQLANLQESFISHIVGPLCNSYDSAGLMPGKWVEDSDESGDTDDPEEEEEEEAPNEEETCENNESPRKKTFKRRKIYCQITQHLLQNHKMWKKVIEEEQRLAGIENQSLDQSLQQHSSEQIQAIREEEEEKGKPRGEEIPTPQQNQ
Method: as §2
(§3) The thus obtained PDE types V, III and I were measured for their activity in accordance with the method of Thompson et al. (Adv. Cyclic Nucleotide Res., 10, 69-72, 1979) and the method of Wells et al. (Biochim. Biophys. Acta, 384, 430-443, 1975). Specifically, a purified PDE sample was added to 50 mM Tris-HCl buffer solution (pH 7.5) containing 1 μM of substrate cGMP or cAMP (containing tritium-labelled cGMP or cAMP), 1 mM EGTA and 2 mM magnesium acetate. For PDE activity measurement, enzymatically produced 5' GMP or 5' AMP was further hydrolyzed into guanosine or adenosine with snake venom and separated from the substrate by means of an ion-exchange resin (Dowex 1-X2), followed by measuring with a scintillation counter. The activity of each test compound was determined as a percentage of the DPE activity measured when it was added as a dimethyl sulfoxide solution (DMSO) and its IC50 (50% inhibition concentration) was calculated by the probit method. The final concentration of DMSO was adjusted to be no more than 2% in consideration of the effect on PDE activity.

PDE type I = experiment: PDE Inhibiting Activity, type I; assay type: biochemical, dog (canine aorta); details: PDE type I from canine aorta, 1 μM substrate, pH 7.5; read-out: Inhibition Activity IC50, Type I
Method: as §2, §3

[1] = tested on: vascular smooth muscle cells isolated from aortic media; details: Garg et al. 1989; Nakaki et al. 1990; cited from earlier work
[2] = tested on: pulmonary arterial pressure; experiment: Pulmonary Arterial Pressure Lowering Action in anesthetized dogs; assay type: in vivo, adult mongrel dogs; details: for inhibition in vivo at 0.3 mg/kg: 0.3 mg/kg intravenous, maximal percent decrease
Method: (§4) Adult mongrel dogs were anesthetized by intramuscular administration of 20 mg/kg of ketamine and intravenous administration of 20 mL/kg of physiological saline containing 5 mg/mL of α-chloralose; under artificial respiration, the aortic pressure was measured with a catheter inserted into the femoral artery and the pulmonary arterial pressure with a Swan-Ganz catheter inserted into the pulmonary artery. Anesthesia was maintained by intravenous administration of physiological saline containing 5 mg/mL of α-chloralose at a rate of 5 mL/kg per hour. Comparison was made between nitroglycerin, nifedipine and test compounds which were administered intravenously at doses of 0.01-1 mg/kg. Each test compound was dissolved in dimethylformamide (DMF) and sequentially diluted with polyethylene glycol 200 and water to give respective proportions of 20, 50 and 30% (v/v) and administrated by injection into the right femoral vein in a volume of 0.3 mL/kg. The results are shown in Table 2 below, in which maximal percent decreases in the pulmonary arterial pressure and aortic pressure are listed to show the effectiveness of each test compound in lowering the pulmonary arterial pressure and the systemic blood pressure, respectively.

systemic blood pressure = experiment: Systemic blood (aortic) pressure lowering in anesthetized dogs; assay type: in vivo, adult mongrel dogs; details: Canis lupus familiaris, iv, read-out: Reduction in systemic blood pressure; for inhibition in vivo at 0.3 mg/kg: 0.3 mg/kg intravenous, anesthetized dogs, maximal percent decrease
Method: as §4

[3] = PDE type III from canine aorta, 1 μM substrate, pH 7.5, read-out: Inhibition Activity IC50, Type III
[4] = Canis lupus familiaris, iv, anesthetized dogs, read-out: Reduction in pulmonary arterial pressure

SMILES: OCCN(CCO)c1nc(N2CCCCC2)c2nc(N(CCO)CCO)nc(N3CCCCC3)c2n1 [Dipyridamole, dipyridamole, reference compound]
Coronary artery diameter (relative to nitroglycerin) (coronary artery diameter; 0.03 mg/kg intravenous): 0.17 | coronary artery diameter versus coronary blood flow (in words) (coronary artery diameter; intravenous, anesthetized dogs): increased more of the coronary blood flow than the coronary artery diameter | Coronary blood flow (relative to nitroglycerin) (coronary blood flow; 0.03 mg/kg intravenous): 2.66

IC50 (PDE type V): 0.0043 µM | IC50 (PDE type III; [3]): > 30 µM | IC50 (PDE type I): > 30 µM
SMILES: CCCOC(=O)COc1cc2c(=O)c(Cc3cccnc3)cn3c4ccc(Br)cc4c(c1)c23 [Example 7, 10-bromo-2-n-propoxycarbonylmethyloxy-5-(3-pyridylmethyl)-4H-pyrido [3,2,1-jk]carbazole-4-one]

SMILES: Nc1nc2c(nc(Br)n2[C@@H]2O[C@@H]3COP(=O)(O)O[C@H]3[C@H]2O)c(=O)[nH]1 [Example 8-bromo-cGMP, 8-bromo-cGMP]
proliferation of cultured vascular smooth muscle cells (in words) [1]: suppressed

SMILES: O=C(COc1cc2c(=O)c(Cc3cccnc3)cn3c4ccc(Br)cc4c(c1)c23)OC1CCCCC1 [Example 15]
IC50 (PDE type V): 0.045 µM | IC50 (PDE type III; [3]): 15 µM | IC50 (PDE type I): > 30 µM

SMILES: CCNC(=O)COc1cc2c(=O)c(Cc3cccnc3)cn3c4cc(Br)ccc4c(c1)c23 [Example 109, 9-bromo-2-(N-ethylcarbamoylmethyloxy)-5-(3-pyridylmethyl)-4H-pyrido [3,2,1-jk]carbazole-4-one]
IC50 (PDE type III): 14 µM | IC50 (PDE type I): > 30 µM | inhibition in vivo at 0.3 mg/kg [2, 4]: 19% | inhibition in vivo at 0.3 mg/kg (systemic blood pressure): 11%

IC50 (PDE type III; [3]): 10 µM | IC50 (PDE type I): > 30 µM
SMILES: O=c1c(Cc2cccnc2)cn2c3cc(Br)ccc3c3cc(OCCCO)cc1c32 [Example 110, 9-bromo-2-(3-hydroxypropyloxy)-5-(3-pyridylmethyl)-4H-pyrido [3,2,1-jk]carbazole-4-one]
inhibition in vivo at 0.3 mg/kg [2, 4]: 23% | inhibition in vivo at 0.3 mg/kg (systemic blood pressure): 7%

IC50 (PDE type III; [3]): 7.3 µM | IC50 (PDE type I): 48 µM
SMILES: O=c1c(Cc2cccnc2)cn2c3ccccc3c3cc(O)cc1c32 [Example 155]
Coronary artery diameter (relative to nitroglycerin) (coronary artery diameter; 1 mg/kg intravenous): 1.47 | Coronary blood flow (relative to nitroglycerin) (coronary blood flow; 1 mg/kg intravenous): 0.79

IC50 (PDE type III; [3]): 6.9 µM | IC50 (PDE type I): > 100 µM
SMILES: O=c1ccn2c3ccc(Cl)cc3c3cccc1c32 [Example 193, 10-chloro-4H-pyrido[3,2,1-jk]carbazole-4-one]
inhibition in vivo at 0.3 mg/kg [2, 4]: 16% | inhibition in vivo at 0.3 mg/kg (systemic blood pressure): 1% | Coronary artery diameter (relative to nitroglycerin) (coronary artery diameter; 1 mg/kg intravenous): 1.44 | Coronary blood flow (relative to nitroglycerin) (coronary blood flow; 1 mg/kg intravenous): 1.40

IC50 (PDE type V): 0.08 µM | IC50 (PDE type III; [3]): > 30 µM | IC50 (PDE type I): > 30 µM
SMILES: O=c1ccn2c3ccc(Cl)cc3c3cc(Cl)cc1c32 [Example 264, 2,10-dichlor-4H-pyrido[3,2,1-jk]carbazole-4-one]

SMILES: O=c1c(Cc2cccnc2)cn2c3cc(Br)ccc3c3cc(OCCCO)cc1c32 [Example 278, 9-bromo-2-(3-hydroxyoropyloxy)-5-(3-pyridylmethyl)-4H-pyrido[3,2,1-jk]carbazole-4-one hydrochloride]
Coronary artery diameter (relative to nitroglycerin) (coronary artery diameter; 1 mg/kg intravenous): 1.50 | Coronary blood flow (relative to nitroglycerin) (coronary blood flow; 1 mg/kg intravenous): 0.04

SMILES: O=[N+]([O-])OCC(CO[N+](=O)[O-])O[N+](=O)[O-] [Nitroglycerin, nitroglycerin, reference compound]
inhibition in vivo at 0.01 mg/kg ([2]; Canis lupus familiaris, iv, read-out: Reduction in pulmonary arterial pressure): 19% | pulmonary arterial versus systemic blood pressure lowering (in words) ([2]; intravenous, anesthetized dogs): lowered the systemic blood pressure by greater degrees than the pulmonary arterial pressure | inhibition in vivo at 0.01 mg/kg (systemic blood pressure): 30% | proliferation of cultured vascular smooth muscle cells (in words) [1]: suppressed

— patent US6197768A, “Pyridocarbazole derivatives having cgmp-pde inhibitory activity” (Mochida Pharmaceutical Co., Ltd., priority 1996, dated 2001)
